# Assays:
# 129S6/SvEv mice [1] = test: Marble burying (MB); type: in vivo; details: for p, Fisher's PLSD Saline vs. drug, MB Marbles Buried (no.): drug 5 minutes after stress, FIG. 2K; for number of marbles buried: vs saline
# Method: The MB assay was conducted in a clean cage (10.5 in×5.5 in) containing soft pliable Beta Chip bedding (Northeastern Products Corp, Warrensburg, N.Y.). The cage contained 16 marbles set up in 4 rows of 4 across. Mice were given 30 minutes to explore and bury. At the end of the assay, the percentage of marbles buried was calculated.
# 129S6/SvEv mice [2] = test: Forced swim test (FST); immobility time; type: in vivo; details: for p, Fisher's PLSD Saline vs. drug, FST Day 2 Immobility Time (sec): drug 1 week before stress; for p, Fisher's PLSD Saline vs. drug, FST Day 2 Immobility Time Min 1 (s) / p, Fisher's PLSD Saline vs. drug, FST Day 2 Immobility Time Min 2 (s) / p, Fisher's PLSD Saline vs. drug, FST Day 2 Immobility Time Min 3 (s) / p, Fisher's PLSD Saline vs. drug, FST Day 2 Immobility Time Min 4 (s) / p, Fisher's PLSD Saline vs. drug, FST Day 2 Immobility Time Min 5 (s) / p, Fisher's PLSD Saline vs. drug, FST Day 2 Immobility Time Min 6 (s) / p, Fisher's PLSD Saline vs. drug, FST Day 2 Immobility Time (s): drug 5 minutes after stress; for p, Fisher's PLSD Saline vs. drug, FST Day 2 Immobility Time Min 1 (s) / p, Fisher's PLSD Saline vs. drug, FST Day 2 Immobility Time Min 2 (s) / p, Fisher's PLSD Saline vs. drug, FST Day 2 Immobility Time Min 3 (s) / p, Fisher's PLSD Saline vs. drug, FST Day 2 Immobility Time Min 4 (s) / p, Fisher's PLSD Saline vs. drug, FST Day 2 Immobility Time Min 5 (s) / p, Fisher's PLSD Saline vs. drug, FST Day 2 Immobility Time Min 6 (s): FIG. 2F; for p, Fisher's PLSD Saline vs. drug, FST Day 2 Immobility Time (s): FIG. 2G
# Method: The FST was administered as previously described (47). Briefly, mice were placed into clear plastic buckets 20 cm in diameter and 23 cm deep filled ⅔ of the way with 22° C. water. Mice were videotaped from the side for 6 min and were exposed to the swim test on 2 consecutive days Immobility time was scored by an experimenter blind to the experimental groups.
# [3] = (R,S)-ketamine (30 mg/kg) vs. FENM (20 mg/kg), FIG. 8H
compound,measurement,setting,value
"NC12CC3CC(C1)CC(CCF)(C3)C2 [FENM, 1-amino-3-fluoroethyl-adamantane]","p, Fisher's PLSD Saline vs. drug, MB Marbles Buried (no.)",129S6/SvEv mice [1]; 10 mg/kg,0.0737
same,"p, Fisher's PLSD Saline vs. drug, MB Marbles Buried (no.)",129S6/SvEv mice [1]; 30 mg/kg,0.0097
same,number of marbles buried,"129S6/SvEv mice [1]; 5 minutes after CFC, re-exposure 5 days after training, FENM 20 and 30 mg/kg, (R,S)-ketamine 30 mg/kg",decreased the number of marbles buried
same,"p, Fisher's PLSD Saline vs. drug, MB Marbles Buried (no.)",129S6/SvEv mice [1]; dose (20),0.0002
same,number of marbles buried,"129S6/SvEv mice [1]; non-stressed mice, FENM 20 mg/kg 1 hour before the start of the OF",did not affect
same,"p, Marbles Buried (no.), MB, Saline vs. FENM","129S6/SvEv mice [1]; t-test, Baseline, anxiety cohort, FENM 20 mg/kg, FIG. 7F",0.4657
same,"p, Fisher's PLSD Saline vs. drug, FST Day 2 Immobility Time (sec)","129S6/SvEv mice [2]; 10 mg/kg, after ANOVA, FIG. 1G",0.0307
same,"p, Fisher's PLSD Saline vs. drug, FST Day 2 Immobility Time (sec)","129S6/SvEv mice [2]; 10 mg/kg, after RMANOVA, FIG. 1F",0.0085
same,"p, Fisher's PLSD Saline vs. drug, FST Day 2 Immobility Time Min 1 (s)",129S6/SvEv mice [2]; 10 mg/kg,0.3105
same,"p, Fisher's PLSD Saline vs. drug, FST Day 2 Immobility Time Min 2 (s)",129S6/SvEv mice [2]; 10 mg/kg,0.2275
same,"p, Fisher's PLSD Saline vs. drug, FST Day 2 Immobility Time Min 3 (s)",129S6/SvEv mice [2]; 10 mg/kg,0.0949
same,"p, Fisher's PLSD Saline vs. drug, FST Day 2 Immobility Time Min 4 (s)",129S6/SvEv mice [2]; 10 mg/kg,0.1329
same,"p, Fisher's PLSD Saline vs. drug, FST Day 2 Immobility Time Min 5 (s)",129S6/SvEv mice [2]; 10 mg/kg,0.4763
same,"p, Fisher's PLSD Saline vs. drug, FST Day 2 Immobility Time Min 6 (s)",129S6/SvEv mice [2]; 10 mg/kg,0.4453
same,"p, Fisher's PLSD Saline vs. drug, FST Day 2 Immobility Time (s)","129S6/SvEv mice [2]; 10 mg/kg, after ANOVA",0.0204
same,"p, Fisher's PLSD Saline vs. drug, FST Day 2 Immobility Time (sec)","129S6/SvEv mice [2]; 20 mg/kg, after ANOVA, FIG. 1G",<0.0001
same,"p, Fisher's PLSD Saline vs. drug, FST Day 2 Immobility Time (sec)","129S6/SvEv mice [2]; 20 mg/kg, after RMANOVA, FIG. 1F",<0.0001
same,"p, Fisher's PLSD Saline vs. drug, FST Day 2 Immobility Time (sec)","129S6/SvEv mice [2]; 30 mg/kg, after ANOVA, FIG. 1G",0.0005
same,"p, Fisher's PLSD Saline vs. drug, FST Day 2 Immobility Time (sec)","129S6/SvEv mice [2]; 30 mg/kg, after RMANOVA, FIG. 1F",0.0003
same,"p, Fisher's PLSD Saline vs. drug, FST Day 2 Immobility Time Min 1 (s)",129S6/SvEv mice [2]; 30 mg/kg,0.9988
same,"p, Fisher's PLSD Saline vs. drug, FST Day 2 Immobility Time Min 2 (s)",129S6/SvEv mice [2]; 30 mg/kg,<0.0001
same,"p, Fisher's PLSD Saline vs. drug, FST Day 2 Immobility Time Min 3 (s)",129S6/SvEv mice [2]; 30 mg/kg,0.2804
same,"p, Fisher's PLSD Saline vs. drug, FST Day 2 Immobility Time Min 4 (s)",129S6/SvEv mice [2]; 30 mg/kg,0.4890
same,"p, Fisher's PLSD Saline vs. drug, FST Day 2 Immobility Time Min 5 (s)",129S6/SvEv mice [2]; 30 mg/kg,0.8673
same,"p, Fisher's PLSD Saline vs. drug, FST Day 2 Immobility Time Min 6 (s)",129S6/SvEv mice [2]; 30 mg/kg,0.6591
same,"p, Fisher's PLSD Saline vs. drug, FST Day 2 Immobility Time (s)","129S6/SvEv mice [2]; 30 mg/kg, after ANOVA",0.0210
same,"immobility time, day 2 of the FST","129S6/SvEv mice [2]; 5 minutes after CFC, re-exposure 1 day after training, (R,S)-ketamine 30 mg/kg, FENM 20 mg/kg, vs saline",significantly reduced immobility time
same,"Forced Swim Test Day 1, Immobility Time Min 1 (sec), p (Fisher's LSD)",129S6/SvEv mice [2]; [3],0.2548
same,"Forced Swim Test Day 1, Immobility Time Min 2 (sec), p (Fisher's LSD)",129S6/SvEv mice [2]; [3],0.5009
same,"Forced Swim Test Day 1, Immobility Time Min 3 (sec), p (Fisher's LSD)",129S6/SvEv mice [2]; [3],0.4155
same,"Forced Swim Test Day 1, Immobility Time Min 4 (sec), p (Fisher's LSD)",129S6/SvEv mice [2]; [3],0.7067
same,"Forced Swim Test Day 1, Immobility Time Min 5 (sec), p (Fisher's LSD)",129S6/SvEv mice [2]; [3],0.3041
same,"Forced Swim Test Day 1, Immobility Time Min 6 (sec), p (Fisher's LSD)",129S6/SvEv mice [2]; [3],0.8903
same,"Forced Swim Test Day 2, Immobility Time (sec), p (Fisher's LSD)","129S6/SvEv mice [2]; (R,S)-ketamine (30 mg/kg) vs. FENM (20 mg/kg), after ANOVA, FIG. 8K",0.0713
same,"Forced Swim Test Day 2, Immobility Time (sec), p (Fisher's LSD)","129S6/SvEv mice [2]; (R,S)-ketamine (30 mg/kg) vs. FENM (20 mg/kg), after RMANOVA, FIG. 8J",0.0712
same,Behavior: Depressive-like,"129S6/SvEv mice [2]; Antidepressant (5 min after stress), dose 10 mg/kg",↓
same,Behavior: Depressive-like,"129S6/SvEv mice [2]; Antidepressant (5 min after stress), dose 20 mg/kg",↓
same,Behavior: Depressive-like,"129S6/SvEv mice [2]; Antidepressant (5 min after stress), dose 30 mg/kg",↓
same,Behavior: Depressive-like,"129S6/SvEv mice [2]; Antidepressant (5 min after stress; extinction), dose 20 mg/kg",↓

# Reference: patent publication US20220071932A1, “Compositions and Methods Against Stress-Induced Affective Disorders and Their Associated Symptoms” (The Trustees of Columbia University in the City of New York, priority 2019, published 2022)
